Experimental data as given in patent US9023789B2, “Amylin analogs and pharmaceutical compositions thereof” (Novo Nordisk A/S, priority 2012, dated 2015).
Values after ≈ are worked out from the molar mass of the structure shown. Where two headings read alike, the source gives them in different places. Numbered stars: 1 amine (or outer) side, 2 acyl side, 3 side chain; on linkers, the order of the positions; unused ones are H or OH. Bridge positions count the residues as written; N and C are the ends. Side chains are listed from the residue outwards. Peptide text beside a SMILES is read from it. * marks the point of attachment. C20 diacid = O=C(O)CCCCCCCCCCCCCCCCCCC(=O)*; γGlu = O=C(O)[C@H](CCC(=O)[*:2])N[*:1]

Legend:
[1] = molecular target: T1, rat amylin receptor (rat calcitonin receptor + rat RAMP 3) (Rattus norvegicus, UniProt P32214+Q9JJ73); assay: ASSAY (VI) binding to the rat amylin receptor; details: for IC50: binding to rat amylin receptor, read-out: rAmylin-R bind IC50
T1 construct: expressed in transfected cells; host or cells: BHK tk'ts 13 (transient, FuGENE 6), membranes
T1 sequence (P32214 25-479 isoform P32214-2 limits assumed): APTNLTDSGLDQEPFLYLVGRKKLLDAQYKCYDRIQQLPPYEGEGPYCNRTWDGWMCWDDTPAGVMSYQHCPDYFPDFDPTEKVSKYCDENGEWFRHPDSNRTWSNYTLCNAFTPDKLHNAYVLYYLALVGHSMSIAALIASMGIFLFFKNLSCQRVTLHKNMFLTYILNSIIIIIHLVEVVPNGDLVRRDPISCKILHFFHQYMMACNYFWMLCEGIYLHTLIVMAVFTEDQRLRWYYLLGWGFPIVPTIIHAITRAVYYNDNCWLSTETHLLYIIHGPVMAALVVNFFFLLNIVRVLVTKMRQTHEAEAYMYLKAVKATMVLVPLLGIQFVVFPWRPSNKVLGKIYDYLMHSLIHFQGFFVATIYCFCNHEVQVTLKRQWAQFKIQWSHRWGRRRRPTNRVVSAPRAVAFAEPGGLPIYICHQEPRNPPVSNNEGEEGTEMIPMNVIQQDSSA
T1 sequence (Q9JJ73 23-147 partner): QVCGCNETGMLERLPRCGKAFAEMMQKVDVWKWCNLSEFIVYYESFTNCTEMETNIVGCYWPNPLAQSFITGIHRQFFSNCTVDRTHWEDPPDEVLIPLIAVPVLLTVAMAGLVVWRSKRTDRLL
In short: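 This assay measured binding to the rat amylin receptor. BHK tk′ts 13 cells were transiently transfected with the rat calcitonin receptor using FuGENE® 6 (Roche), following the manufacturer's recommendations. About 48 hours after transfection, the cells were harvested and membranes were prepared from them for the binding determination.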

[2] = molecular target: T2, rat calcitonin receptor (Rattus norvegicus, UniProt P32214); assay: ASSAY (VIII) binding to the rat calcitonin receptor; details: Table 7, read-out: rCTR bind IC50
T2 construct: expressed in transfected cells; host or cells: BHK tk'ts 13 (transient, FuGENE 6), membranes
T2 sequence (P32214 25-479 isoform P32214-2 limits assumed): T1 sequence (P32214 25-479 isoform P32214-2 limits assumed)
In short: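 Membranes were prepared from BHK tk′ts 13 cells transiently transfected with rat calcitonin receptor. Cells were grown in DMEM with 10% FBS and harvested approximately 48 hours after transfection.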

[3] = molecular target: T3, human amylin receptor (membranes from Amylin 3(a)/CRE-luc cells) (Homo sapiens, UniProt O60896+P30988); assay: ASSAY (V) binding to the human amylin receptor (SPA, 125I-rat amylin);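 note: competition binding of cell membranes (35 ng/µL) mixed with SPA beads in 384-well plates at 40 µL total volume, read by scintillation counting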
T3 construct: expressed in transfected cells
T3 sequence (P30988 25-474): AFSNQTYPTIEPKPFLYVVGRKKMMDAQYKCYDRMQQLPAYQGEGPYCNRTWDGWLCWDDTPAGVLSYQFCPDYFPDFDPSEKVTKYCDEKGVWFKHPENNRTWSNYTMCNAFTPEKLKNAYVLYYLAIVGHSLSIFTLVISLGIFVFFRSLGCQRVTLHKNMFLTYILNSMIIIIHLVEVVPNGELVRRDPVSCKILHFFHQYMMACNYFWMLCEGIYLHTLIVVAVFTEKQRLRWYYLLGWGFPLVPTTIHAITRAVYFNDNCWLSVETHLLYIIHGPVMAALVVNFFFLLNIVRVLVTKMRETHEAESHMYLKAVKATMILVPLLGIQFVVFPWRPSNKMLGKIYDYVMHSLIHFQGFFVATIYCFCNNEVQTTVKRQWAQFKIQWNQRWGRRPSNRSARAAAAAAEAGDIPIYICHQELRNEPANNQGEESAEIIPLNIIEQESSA
T3 sequence (O60896 24-148 partner): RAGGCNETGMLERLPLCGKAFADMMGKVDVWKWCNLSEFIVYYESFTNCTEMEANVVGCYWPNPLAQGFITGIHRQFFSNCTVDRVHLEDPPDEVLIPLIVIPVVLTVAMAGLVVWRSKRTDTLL

[4] = test system: Sprague Dawley (SD) rats; assay: ASSAY (I) efficacy testing on appetite (food intake) using an ad libitum fed rat model; type: in vivo; details: rat, 30 nmol/kg
In short: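 Ad libitum fed SD rats (200–250 g) were housed singly on a reversed light/dark cycle and given one 0.01–3 mg/kg dose ip, po or sc just before lights-off, with 5–8 per dose group plus vehicle controls. Food intake was recorded hourly for 7 h, then at 24 h and sometimes 48 h; Grubbs outliers were excluded.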

[5] = ASSAY (IV) determination of solubility; type: physicochemical
In short: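 Polypeptide in water at […] mixed 1:1 with 100 mM buffers of pH 3.0-8.0 (glycylglycine pH 3-5, bistrispropane pH 6-8). Held 18 h at room temperature, then centrifuged; concentration remaining in solution measured by UPLC.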

[6] = Table 7, rat binding selectivity, rCTR IC50 / rAmylin-R IC50
[7] = Table 7a (preferred compounds), rat binding selectivity, rCTR IC50 / rAmylin-R IC50
[8] = ratio of rCTR bind IC50 to rAmylin-R bind IC50
[9] = Table 5, selectivity, hCTR bind IC50 / hAmylin-R bind IC50
[10] = Table 5a, selectivity, hCTR bind IC50 / hAmylin-R bind IC50
[11] = Table 5b, selectivity, hCTR bind IC50 / hAmylin-R bind IC50
[12] = Table 5c, selectivity, hCTR bind IC50 / hAmylin-R bind IC50
[13] = Table 7, human binding selectivity, included for comparison
[14] = Table 7a (preferred compounds), human binding selectivity, included for comparison
[15] = ratio of human calcitonin receptor binding IC50 to human amylin receptor binding IC50
[16] = bistrispropane buffer, pH 6.5, read-out: Solubility pH 6.5 Concentration
[17] = bistrispropane buffer, pH 7.5, read-out: Solubility pH 7.5 Concentration
[18] = bistrispropane buffer, pH 6.0, read-out: Solubility pH 6.0 Concentration
[19] = bistrispropane buffer, pH 7.0, read-out: Solubility pH 7.0 Concentration
[20] = bistrispropane buffer, pH 8.0, read-out: Solubility pH 8.0 Concentration
[21] = glycylglycine buffer, pH 3.0, read-out: Solubility pH 3.0 Concentration
[22] = glycylglycine buffer, pH 4.0, read-out: Solubility pH 4.0 Concentration
[23] = glycylglycine buffer, pH 5.0, read-out: Solubility pH 5.0 Concentration

| SMILES | IC50 ([1]; Table 7) [nM] | Ratio rCT/rAmylin binding [1, 6] | Ratio rCT/rAmylin binding [1, 7] | Ratio rCT/rAmylin binding [1, 8] | IC50 [2] [nM] | Ratio hCT/hAmylin binding [3, 9] | Ratio hCT/hAmylin binding [3, 10] | Ratio hCT/hAmylin binding [3, 11] | Ratio hCT/hAmylin binding [3, 12] | Ratio hCT/hAmylin binding [3, 13] | Ratio hCT/hAmylin binding [3, 14] | Ratio hCT/hAmylin binding [3, 15] | Food intake reduction 0-24 h 30 nmol/kg (%) [4] [%] | Food intake reduction 24-48 h 30 nmol/kg (%) [4] [%] | solubility at 18 h [5, 16] [µM] | solubility at 18 h [5, 17] [µM] | solubility at 18 h [5, 18] [µM] | solubility at 18 h [5, 19] [µM] | solubility at 18 h [5, 20] [µM] | solubility at 18 h [5, 21] [µM] | further results |
| --- | --- | --- | --- | --- | --- | --- | --- | --- | --- | --- | --- | --- | --- | --- | --- | --- | --- | --- | --- | --- | --- |
| CC[C@H](C)[C@H](NC(=O)[C@H](C)NC(=O)CNC(=O)[C@H](Cc1ccccc1)NC(=O)[C@H](CC(N)=O)NC(=O)[C@@H]1CCCN1C(=O)[C@H](CO)NC(=O)[C@H](CO)NC(=O)[C@H](Cc1c[nH]cn1)NC(=O)[C@H](CCCNC(=N)N)NC(=O)[C@H](CC(C)C)NC(=O)[C@H](Cc1ccccc1)NC(=O)[C@H](CC(N)=O)NC(=O)[C@H](C)NC(=O)[C@H](CC(C)C)NC(=O)[C@H](CCCNC(=N)N)NC(=O)[C@H](CCC(N)=O)NC(=O)[C@@H](NC(=O)[C@H](C)NC(=O)[C@@H]1CSSC[C@H](NC(=O)[C@@H](N)CCCCNC(=O)CC[C@H](NC(=O)CCCCCCCCCCCCCCCCCCC(=O)O)C(=O)O)C(=O)N[C@@H](CC(N)=O)C(=O)N[C@@H]([C@@H](C)O)C(=O)N[C@@H](C)C(=O)N[C@@H]([C@@H](C)O)C(=O)N1)[C@@H](C)O)C(=O)N1CCC[C@H]1C(=O)N[C@@H](CO)C(=O)N[C@@H](CO)C(=O)N[C@H](C(=O)N[C@@H](CC(N)=O)C(=O)N[C@H](C(=O)NCC(=O)N[C@@H](CO)C(=O)N[C@@H](CCCCN)C(=O)N[C@H](C(=O)N[C@@H](Cc1ccc(O)cc1)C(N)=O)[C@@H](C)O)C(C)C)[C@@H](C)O [Example 35] (H-K([γGlu-C20 diacid])CNTATCATQRLANFLRHSSPNFGAIPSSTNVGSKTY-NH2; disulfide 2-7; N-terminus assumed) | 0.948 | 65.1 | 65.1 | 65.1 | 61.7 | 50.3 | 50.3 | 50.3 | 50.3 | 50.3 | 50.3 | 50.3 | 51 | 15 | ≥ 200 | ≥ 200 | ≥ 200 | ≥ 200 | ≥ 200 | ≥ 200 | IC50 ([3]; Table 4, read-out: hAmylin-R bind IC50): 0.97 nM; solubility at 18 h [5, 22]: ≥ 200 µM; solubility at 18 h [5, 23]: ≥ 200 µM |
| CC[C@H](C)[C@H](NC(=O)[C@H](C)NC(=O)CNC(=O)[C@H](Cc1ccccc1)NC(=O)[C@H](CC(N)=O)NC(=O)[C@@H]1CCCN1C(=O)[C@H](CO)NC(=O)[C@H](CO)NC(=O)[C@H](Cc1c[nH]cn1)NC(=O)[C@H](CCCNC(=N)N)NC(=O)[C@H](CC(C)C)NC(=O)[C@H](Cc1ccccc1)NC(=O)[C@H](CCC(=O)O)NC(=O)[C@H](C)NC(=O)[C@H](CC(C)C)NC(=O)[C@H](CCCNC(=N)N)NC(=O)[C@H](CCC(N)=O)NC(=O)[C@@H](NC(=O)[C@H](C)NC(=O)[C@@H]1CSSC[C@H](NC(=O)[C@@H](N)CCCCNC(=O)CC[C@H](NC(=O)CC[C@H](NC(=O)CCCCCCCCCCCCCCCCCCC(=O)O)C(=O)O)C(=O)O)C(=O)N[C@@H](CC(N)=O)C(=O)N[C@@H]([C@@H](C)O)C(=O)N[C@@H](C)C(=O)N[C@@H]([C@@H](C)O)C(=O)N1)[C@@H](C)O)C(=O)N1CCC[C@H]1C(=O)N[C@@H](CO)C(=O)N[C@@H](CO)C(=O)N[C@H](C(=O)N[C@@H](CC(N)=O)C(=O)N[C@H](C(=O)NCC(=O)N[C@@H](CCCNC(=N)N)C(=O)N[C@@H](CC(N)=O)C(=O)N[C@H](C(=O)N[C@@H](Cc1ccc(O)cc1)C(N)=O)[C@@H](C)O)C(C)C)[C@@H](C)O [Example 88] (H-K([γGlu-γGlu-C20 diacid])CNTATCATQRLAEFLRHSSPNFGAIPSSTNVGRNTY-NH2; disulfide 2-7) | 2.31 | 84.9 | 84.9 | 84.9 | 196 | 46.5 | 46.5 | 46.5 | 46.5 | 46.5 | 46.5 | 46.5 | 31 | 15 | ≥ 200 | 113 (≈ 519 µg/mL) | ≥ 200 | 162 (≈ 744 µg/mL) | 108 (≈ 496 µg/mL) | ≥ 200 | solubility at 18 h [5, 22]: ≥ 200 µM; solubility at 18 h [5, 23]: ≥ 200 µM |
| CC[C@H](C)[C@H](NC(=O)[C@H](C)NC(=O)CNC(=O)[C@H](Cc1ccccc1)NC(=O)[C@H](CC(N)=O)NC(=O)[C@@H]1CCCN1C(=O)[C@H](CO)NC(=O)[C@H](CO)NC(=O)[C@H](Cc1c[nH]cn1)NC(=O)[C@H](CCCNC(=N)N)NC(=O)[C@H](CC(C)C)NC(=O)[C@H](Cc1ccccc1)NC(=O)[C@H](CC(N)=O)NC(=O)[C@H](C)NC(=O)[C@H](CC(C)C)NC(=O)[C@H](CCCNC(=N)N)NC(=O)[C@H](CCC(N)=O)NC(=O)[C@@H](NC(=O)[C@H](C)NC(=O)[C@@H]1CSSC[C@H](NC(=O)[C@@H](N)CCCCNC(=O)CC[C@H](NC(=O)CCCCCCCCCCCCCCCCCCC(=O)O)C(=O)O)C(=O)N[C@@H](CC(N)=O)C(=O)N[C@@H]([C@@H](C)O)C(=O)N[C@@H](C)C(=O)N[C@@H]([C@@H](C)O)C(=O)N1)[C@@H](C)O)C(=O)N1CCC[C@H]1C(=O)N[C@@H](CO)C(=O)N[C@@H](CO)C(=O)N[C@H](C(=O)N[C@@H](CC(N)=O)C(=O)N[C@H](C(=O)NCC(=O)N[C@@H](CO)C(=O)N[C@@H](Cc1c[nH]cn1)C(=O)N[C@H](C(=O)N[C@@H](Cc1ccc(O)cc1)C(N)=O)[C@@H](C)O)C(C)C)[C@@H](C)O [Example 60] | 0.215 | 122.4 | 122.4 | 122.4 | 26.3 | 45.2 | 45.2 | 45.2 | 45.2 | 45.2 | 45.2 | 45.2 | 69 | 21 | ≥ 200 | 186 (≈ 819 µg/mL) | ≥ 200 | ≥ 200 | 98 (≈ 432 µg/mL) | ≥ 200 | solubility at 18 h [5, 22]: ≥ 200 µM; solubility at 18 h [5, 23]: ≥ 200 µM |
